This experiment concerns the target T1, human GLP-1 receptor (Homo sapiens, UniProt P43220).
T1 construct: expressed in transfected cells
In words: GLP-1R cAMP assay (cAMP accumulation in CHO cells stably overexpressing the human GLP-1 receptor, HitHunter kit). To be noted: CHO cells stably overexpressing human GLP-1R, 30 min, 20-point dose response in triplicate. The class given is cell-based. The method, then:
CAMP accumulation was measured in Chinese hamster ovary (CHO) cells (10,000 cells/well) stably overexpressing the human GLP-1 receptor using the HitHunter CAMP Assay for Small Molecules Kit (Eurofins). Briefly, cells were grown in Ham's F12 Nutrient Mix with 10% FBS, and lifted with Cell Dissociation Buffer, Enzyme free, PBS based (ThermoFisher). Cells were pelleted, and resuspended in Hank's buffered saline solution with 10 mM HEPES, and 625 μM 3-isobutyl-1-methylxanthine. The anti-cAMP antibody reagent was then added to cells at a 1:2 ratio and 5 μL of mixture was seeded in 384-well small volume white assay plates, at 10,000 cells/well. Cells were then treated with 50 nL compound using an ECHO 550 acoustic dispenser (Labcyte) in a 20-point dose response format in triplicate for 30 min. Cells were then lysed, and detection reagents added according to the manufacturer's protocol. After overnight incubation, luminescence was measured using a Perkin Elmer Envision plate reader. Dose response curves were analyzed using GraphPad Prism 9.0.
In the Table, EC50 values are designated as follows: • A: 0 nM<EC50<0.1 nM; • B: 0.1 nM≤EC50<1.0 nM; • C: 1.0 nM≤EC50<10.0 nM; • D: 10.0 nM≤EC50<100 nM; • E: 100 nM≤EC50<500 nM; and • F: ≥500 nM
(cAMP levels reflect the balance of adenylyl cyclase and phosphodiesterase activity.)

One may read the EC50 as the concentration that produces a half-maximal response. The low end stands for higher potency in that assay, the high end for lower potency in that assay.

T1 sequence (P43220 24-463): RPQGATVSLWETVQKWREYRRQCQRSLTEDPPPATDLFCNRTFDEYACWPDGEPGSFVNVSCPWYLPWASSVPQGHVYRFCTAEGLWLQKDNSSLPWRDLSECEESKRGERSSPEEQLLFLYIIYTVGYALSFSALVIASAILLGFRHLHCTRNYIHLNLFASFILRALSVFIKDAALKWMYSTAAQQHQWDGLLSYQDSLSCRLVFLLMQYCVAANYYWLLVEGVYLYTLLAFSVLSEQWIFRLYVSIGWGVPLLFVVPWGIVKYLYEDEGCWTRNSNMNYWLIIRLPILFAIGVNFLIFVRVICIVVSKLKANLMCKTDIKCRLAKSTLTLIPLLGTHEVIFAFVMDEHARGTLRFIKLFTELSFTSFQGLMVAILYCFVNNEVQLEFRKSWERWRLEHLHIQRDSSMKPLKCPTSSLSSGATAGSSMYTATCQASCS

Turning to `CC(c1nc2ccc(C(=O)O)cc2n1C[C@@H]1CCO1)N1CC[C@H](Oc2ccnc(COc3ccc(F)cc3F)n2)C[C@@H]1C` (mixture of isomers) [Compound 568, 2-{1-[(2S,4S)-4-({2-[(2,4-difluorophenoxy)methyl]pyrimidin-4-yl}oxy)-2-methylpiperidin-1-yl]ethyl}-1-{[(2S)-oxetan-2-yl]methyl}-1H-1,3-benzodiazole-6-carboxylic acid], the EC50 fell in the range of 0.1 to 1 nM.

In the case of `CC(c1nc2ccc(C(=O)O)cc2n1C[C@@H](O)CCO)N1CC[C@H](Oc2ccnc(COc3ccc(F)cc3F)n2)C[C@@H]1C` (mixture of isomers) [Compound 569, 2-{1-[(2S,4S)-4-({2-[(2,4-difluorophenoxy)methyl]pyrimidin-4-yl}oxy)-2-methylpiperidin-1-yl]ethyl}-1-[(2S)-2,4-dihydroxybutyl]-1H-1,3-benzodiazole-6-carboxylic acid], the EC50 was at least 500 nM.

Molecule `N#Cc1ccc(OCc2nccc(O[C@H]3CCN(Cc4nc5ccc(C(=O)O)cc5n4C[C@@H]4CCO4)C[C@H]3F)n2)c(F)c1` [Compound 552, 2-{[(3R,4S)-4-({2-[(4-cyano-2-fluorophenoxy)methyl]pyrimidin-4-yl}oxy)-3-fluoropiperidin-1-yl]methyl}-1-{[(2S)-oxetan-2-yl]methyl}-1H-1,3-benzodiazole-6-carboxylic acid] yielded an EC50 of 0.1 to 1 nM.

With `N#Cc1ccc(OCc2nccc(O[C@H]3CCN(Cc4nc5ccc(C(=O)O)cc5n4C[C@@H]4CCO4)C[C@@H]3F)n2)c(F)c1` [Compound 553, 2-{[(3S,4S)-4-({2-[(4-cyano-2-fluorophenoxy)methyl]pyrimidin-4-yl}oxy)-3-fluoropiperidin-1-yl]methyl}-1-{[(2S)-oxetan-2-yl]methyl}-1H-1,3-benzodiazole-6-carboxylic acid], the EC50 is 0.1 to 1 nM.

Molecule `C[C@H]1C[C@@H](Oc2ccnc(COc3ncc(Cl)cc3F)n2)CCN1Cc1nc2ccc(C(=O)O)cc2n1C[C@@H]1CCO1` [Compound 554, 2-(((2S,4S)-4-((2-(((5-Chloro-3-fluoropyridin-2-yl)oxy)methyl)pyrimidin-4-yl)oxy)-2-methylpiperidin-1-yl)methyl)-1-(((S)-oxetan-2-yl)methyl)-1H-benzo[d]imidazole-6-carboxylic acid] displayed an EC50 of under 0.1 nM.

Turning to `O=C(O)c1ccc2nc(CN3CC[C@H](Oc4ccnc(COc5ccc(Cl)cc5F)c4)C[C@@H]3CF)n(C[C@@H]3CCO3)c2c1` [Compound 555, 2-(((2R,4S)-4-((2-((4-Chloro-2-fluorophenoxy)methyl)pyridin-4-yl)oxy)-2-(fluoromethyl)piperidin-1-yl)methyl)-1-(((S)-oxetan-2-yl)methyl)-1H-benzo[d]imidazole-6-carboxylic acid], the EC50 was under 0.1 nM.

Molecule `C[C@H]1C[C@@H](Oc2ccnc(COc3ccc(F)cc3C#N)n2)CCN1Cc1nc2ncc(C(=O)O)cc2n1C[C@@H]1CCO1` [Compound 556, 2-(((2S,4S)-4-((2-((2-Cyano-4-fluorophenoxy)methyl)pyrimidin-4-yl)oxy)-2-methylpiperidin-1-yl)methyl)-1-(((S)-oxetan-2-yl)methyl)-1H-imidazo[4,5-b]pyridine-6-carboxylic acid] showed an EC50 of 0.1 to 1 nM.

`N#CC[C@H]1C[C@@H](Oc2ccnc(COc3ccc(F)cc3Cl)n2)CCN1Cc1nc2ccc(C(=O)O)cc2n1C[C@@H]1CCO1` [Compound 557, 2-{[(2S,4S)-4-({2-[(2-Chloro-4-fluorophenoxy)methyl]pyrimidin-4-yl}oxy)-2-(cyanomethyl)piperidin-1-yl]methyl}-1-{[(2S)-oxetan-2-yl]methyl}-1H-1,3-benzodiazole-6-carboxylic acid] gave an EC50 of 1 to 10 nM.

On to `C[C@H]1C[C@@H](Oc2ccnc(COc3ccc(F)cc3C#N)n2)CCN1Cc1nc2ccc(C(=O)O)cc2n1C[C@H]1CCOC1` [Compound 558, 2-{[(2S,4S)-4-({2-[(2-cyano-4-fluorophenoxy)methyl]pyrimidin-4-yl}oxy)-2-methylpiperidin-1-yl]methyl}-1-{[(3R)-oxolan-3-yl]methyl}-1H-1,3-benzodiazole-6-carboxylic acid], for which the EC50 fell in the range of 0.1 to 1 nM.

`C[C@H]1C[C@@H](Oc2ccnc(COc3ccc(F)cc3F)n2)CCN1Cc1nc2ccc(C(=O)NO)cc2n1C[C@@H]1CCO1` [Compound 559, 2-(((2S,4S)-4-((2-((2,4-Difluorophenoxy)methyl)pyrimidin-4-yl)oxy)-2-methylpiperidin-1-yl)methyl)-N-hydroxy-1-(((S)-oxetan-2-yl)methyl)-1H-benzo[d]imidazole-6-carboxamide]: the EC50 was 0.1 to 1 nM.

Molecule `C[C@H]1C[C@@H](Oc2ccnc(COc3ccc(F)cc3C#N)n2)CCN1Cc1nc2ccc(C(=O)NO)cc2n1C[C@@H]1CCO1` [Compound 560, 2-{[(2S,4S)-4-({2-[(2-Cyano-4-fluorophenoxy)methyl]pyrimidin-4-yl}oxy)-2-methylpiperidin-1-yl]methyl}-N-hydroxy-1-{[(2S)-oxetan-2-yl]methyl}-1H-1,3-benzodiazole-6-carboxamide] returned an EC50 of 0.1 to 1 nM.

`C[C@H]1C[C@@H](Oc2ccnc(COc3ccc(F)cc3C#N)n2)CCN1Cc1nc2ccc(C(=O)O)cc2n1C[C@H]1CCO1` [Compound 561, 2-{[(2S,4S)-4-({2-[(2-cyano-4-fluorophenoxy)methyl]pyrimidin-4-yl}oxy)-2-methylpiperidin-1-yl]methyl}-1-{[(2R)-oxetan-2-yl]methyl}-1H-1,3-benzodiazole-6-carboxylic acid] gave an EC50 of 0.1 to 1 nM.

`C[C@H]1C[C@@H](Oc2ccnc(COc3ccc(F)cc3F)n2)CCN1Cc1nc2ccc(C(=O)O)cc2n1C[C@H]1CCO1` [Compound 562, 2-{[(2S,4S)-4-({2-[(2,4-difluorophenoxy)methyl]pyrimi-din-4-yl}oxy)-2-methylpiperi-din-1-yl]methyl}-1-{[(2R)-oxe-tan-2-yl]methyl}-1H-1,3-benzo-diazole-6-carboxylic acid] yielded an EC50 of 0.1 to 1 nM.

`C[C@H]1C[C@@H](Oc2ccnc(COc3ccc(F)cc3F)n2)CCN1Cc1nc2ccc(C(=O)NS(C)(=O)=O)cc2n1C[C@@H]1CCO1` [Compound 563, 2-(((2S,4S)-4-((2-((2,4-Difluorophenoxy)methyl)pyrimidin-4-yl)oxy)-2-methylpiperidin-1-yl)methyl)-N-(methylsulfonyl)-1-(((S)-oxetan-2-yl)methyl)-1H-benzo[d]imidazole-6-carboxamide] had an EC50 of 0.1 to 1 nM.

Molecule `C[C@H]1C[C@@H](Oc2ccnc(COc3ccc(F)cc3F)n2)CCN1Cc1nc2ccc(C(=O)NS(=O)(=O)C3CC3)cc2n1C[C@@H]1CCO1` [Compound 564, N-(Cyclopropanesulfonyl)-2-{[(2S,4S)-4-({2-[(2,4-difluorophenoxy)methyl]pyrimidin-4-yl}oxy)-2-methylpiperidin-1-yl]methyl}-1-{[(2S)-oxetan-2-yl]methyl}-1H-1,3-benzodiazole-6-carboxamide] gave an EC50 of 0.1 to 1 nM.

As to `CC(c1nc2ccc(C(=O)O)cc2n1C[C@@H]1CCO1)N1CCC(Oc2ccnc(COc3ccc(F)cc3F)n2)CC1` (stereo partly drawn) [Compound 565, 2-(1-(4-((2-((2,4-Difluorophenoxy)methyl)pyrimidin-4-yl)oxy)piperidin-1-yl)ethyl)-1-(((S)-oxetan-2-yl)methyl)-1H-benzo[d]imidazole-6-carboxylic acid], the EC50 was in the range of 1 to 10 nM.

As for `C[C@H]1C[C@@H](Oc2ccnc(COc3ncc(F)cc3F)n2)CCN1Cc1nc2ccc(C(=O)O)cc2n1C[C@@H]1CCO1` [Compound 566, 2-{[(2S,4S)-4-[(2-{[(3,5-Difluoropyridin-2-yl)oxy]methyl}pyrimidin-4-yl)oxy]-2-methylpiperidin-1-yl]methyl}-1-{[(2S)-oxetan-2-yl]methyl}-1H-1,3-benzodiazole-6-carboxylic acid], the EC50 was 0.1 to 1 nM.

`C[C@H]1C[C@@H](Oc2ccnc(COc3ccc(C#N)cn3)n2)CCN1Cc1nc2ccc(C(=O)O)cc2n1C[C@@H]1CCO1` [Compound 567, 2-{[(2S,4S)-4-[(2-{[(5-Cyanopyridin-2-yl)oxy]methyl}pyrimidin-4-yl)oxy]-2-methylpiperidin-1-yl]methyl}-1-{[(2S)-oxetan-2-yl]methyl}-1H-1,3-benzodiazole-6-carboxylic acid] displayed an EC50 of 0.1 to 1 nM.

In the case of `C[C@H]1C[C@@H](Oc2ccnc(COc3ccc(F)cc3F)n2)CCN1Cc1nc2ccc(C(=O)O)cc2n1CC12CC(CO1)C2` [Compound 570, 2-{[(2S,4S)-4-({2-[(2,4-Difluorophenoxy)methyl]pyrimidin-4-yl}oxy)-2-methylpiperidin-1-yl]methyl}-1-({2-oxabicyclo[2.1.1]hexan-1-yl}methyl)-1H-1,3-benzodiazole-6-carboxylic acid], the EC50 lay within 0.1 to 1 nM.

Molecule `N#Cc1ccc(OCc2nccc(OC3CCC4(CC3)CC4c3nc4ccc(C(=O)O)cc4n3C[C@@H]3CCO3)n2)c(F)c1` (stereo partly drawn) [Compound 571, 2-(6-((2-((4-Cyano-2-fluorophenoxy)methyl)pyrimidin-4-yl)oxy)spiro[2.5]octan-1-yl)-1-(((S)-oxetan-2-yl)methyl)-1H-benzo[d]imidazole-6-carboxylic acid] registered an EC50 of 10 to 100 nM.

The molecule `C[C@H]1C[C@@H](Oc2ccnc(COc3ccc(F)cc3F)n2)CCN1Cc1nc2cc(F)c(C(=O)O)cc2n1C[C@@H]1CCO1` [Compound 572, 2-{[(2S,4S)-4-({2-[(2,4-di-fluorophenoxy)methyl]pyrimidin-4-yl}oxy)-2-methylpiperidin-1-yl]methyl}-5-fluoro-1-{[(2S)-oxetan-2-yl]methyl}-1H-1,3-benzodiazole-6-carboxylic acid] came in with an EC50 of 0.1 to 1 nM.

The values above are taken from patent publication US20260317309A1, “N-HETEROCYLIC GPCR RECEPTOR AGONISTS, PHARMACEUTICAL COMPOSITIONS COMPRISING THE SAME, AND METHODS FOR THEIR USE” (Carmot Therapeutics, Inc., priority 2022, published 2026).
